Experiment [1] has as its system c-Myc HMEC isogenic cell line. Description: c-Myc and CRBN dependency, HMEC isogenic cell line viability (CellTiterGlo). The experiment is classed as cell-based, Human. As to conditions: 72 hours. As for the experimental part:
Human mammary epithelial cells (HMEC) were engineered to express either c-Myc tagged with EGFP or EGFP alone (non myc) (analogous but distinct from Kessler J D et al, Science. 2012 Jan. 20; 335(6066):348-53. doi: 10.1126/science.1212728; Hsu T Y et al, Nature. 2015 Sep. 17; 525(7569):384-8. doi: 10.1038/nature14985). The engineered cells were plated in 6 well plates or seeded at 1000 (myc) or 4000 (non myc) cells/well in a 384 ultra-low attachment plate in a total volume of 40 μL HMEC cell culture media (DMEM/F12+10% HI-FBS+15 mM HEPES+0.5 ug/ml Hydrocortisone+10 ug/ml Insulin+20 ng/ml EGF). Cells were cultured in the presence or absence of doxycycline for 25 population doublings and cell lysates generated for western blotting probing for c-Myc, 4EBP1, phosphor-4EBP1 (p4EBP1) as indicated. β-actin used as a loading control. For the wash-off lane, doxycycline was removed 24 hours before cell lysis. Cell viability was assessed in the presence (Myc on) or absence (Myc off, −Dox) of doxycycline and also following doxycycline removal (Myc off, wash-off). Cell viability was performed following treatment with compound 8 for 72 hours as recommended by the provider (Promega, CellTiterGlo). Similarly, CRBN-dependency was assessed in the HMEC proficient and deficient cell lines induced for c-Myc expression with doxycycline and viability performed as above following 72 hours of treatment with compound 8. EC50 values were determined using Prism8 (GraphPad) and the asymmetric (five-parameter) equation and least squares fit.

Experiment [2] has as its system cells with wildtype (WT) cereblon. Nature of the experiment: Viability in cells with wildtype cereblon. Type of experiment: cell-based. The source says:
(§1) X-axis axis represents m concentration of compound 8; y-axis represents viability normalized to DMSO.

In experiment [3] the test system is cells for which cereblon was knocked out. Description: Viability in cereblon knock-out cells. The experiment is classed as cell-based.
From the text: as §1

Experiment [4] has as its target T1, GSPT1 (Homo sapiens, UniProt P15170+Q96SW2). Nature of the experiment: GSPT1 degradation by compound 210 in NSCLC cells. The experiment is classed as cell-based. Set-up: endogenous in cells. The protocol:
GSPT1 was degraded by compound 210 after six hours of treatment in high N-Myc NCI-H1155 and ABC-1 cells with a DC50 of 3 nM and 22 nM, respectively (x-axis represents M concentration of compound 210; y-axis represents the viability in %).

The next experiment concerns L-Myc. Description: L-Myc levels in SCLC lines after Compound 345 (western blot). The experiment is classed as cell-based. As to conditions: SCLC lines NCI-H1836 and NCI-H1876. An excerpt:
NCI-H1836 and NCI-H1876 were taken as two representatives of L-Myc high SCLC. Western blot analysis probing for GSPT1 and L-Myc following treatment with Compound 345 as indicated. GAPDH was used as a loading control.
In general terms: A western blot detects proteins with antibodies after separation by electrophoresis.

Experiment [5] concerns patient-derived xenografts. Description: In vivo mouse patient-derived xenograft experiment, survival, Compound 345. An excerpt: FIGS. 14A and 14B: In vivo mouse patient-derived xenograft experiment.
The target in experiment [6] is T1, GSPT1. Nature of the experiment: GSPT1 levels in NCI-H1155 tumors (Compound 345). The arrangement: from tissue; host or cells: NCI-H1155 subcutaneous xenograft tumours from BALB/c nude mice. As to conditions: day 5, 1 mg/kg and 10 mg/kg, strongest effect at 10 mg/kg. Type of experiment: in vivo, mice. As for the experimental part: Additionally, plasma concentrations of Compound 345 and levels of GSPT1 and […] (relative to vehicle-only control) were measured in a time-course experiment on day 5 for the animals receiving 1 mg/kg and 10 mg/kg.
GSPT1 and N-Myc western blotting analyses from NCI-H1155 tumors: The NCI-H1155 model was run as described previously and tumors were harvested following 5 consecutive daily PO doses of Compound 345 at 1.0 and 10 mg/kg. Tumors were lysed in 1× lysis buffer (CST, Cat. No. 9803, Lot No. 0000122383) supplemented with protease (Sigma, Cat. No. P8340) and phosphatase ((Sigma, Cat. No. P5726 and P0044) cocktail inhibitors using TissueLyser II (QIAGEN #85300). Samples were spined at 15,000 rpm in an Eppendorf microfuge for 15 min at 4° C. The protein supernatant was collected in a new 1.5 ml tube and the protein concentrations were determined by the Pierce BCA kit (Thermo, Cat. No. 23225). The tumor lysate samples were mixed with 5×SDS-PAGE loading buffer boiled for 5 min and brought to ice for 5 min. 30 μg of protein was loaded onto a NUPAGE 4-12% BT gel (Invitrogen, Cat. No. NPO336BOX) for separation. […] Membranes were imaged on the Odyssey imager (Li-COR) using fluorescence or cheminulinescence detection. […] Data are expressed as mean±SEM derived from at least three different mice and collected at 0, 2, 6, 12, 24, 48, 72 and 96 hr as indicated.

SMILES strings stand for the structures. Where two headings read alike, the source gives them in different places. Where only a bound is given, the exact number is not on record here.

T1 sequence (P15170 whole entry): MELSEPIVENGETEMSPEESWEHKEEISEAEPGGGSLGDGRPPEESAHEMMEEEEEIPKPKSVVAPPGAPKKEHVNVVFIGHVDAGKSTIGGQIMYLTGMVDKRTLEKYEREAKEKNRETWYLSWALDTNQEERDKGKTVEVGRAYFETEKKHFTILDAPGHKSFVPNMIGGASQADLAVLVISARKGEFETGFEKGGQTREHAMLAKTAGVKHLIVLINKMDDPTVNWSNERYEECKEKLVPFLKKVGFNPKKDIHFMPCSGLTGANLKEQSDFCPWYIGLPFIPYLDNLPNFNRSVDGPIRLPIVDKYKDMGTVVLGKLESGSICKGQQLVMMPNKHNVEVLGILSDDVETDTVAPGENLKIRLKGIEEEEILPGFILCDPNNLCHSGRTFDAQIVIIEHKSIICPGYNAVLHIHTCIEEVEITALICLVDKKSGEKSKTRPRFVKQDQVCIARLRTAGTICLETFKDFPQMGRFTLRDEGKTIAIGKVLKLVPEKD
T1 sequence (Q96SW2 whole entry): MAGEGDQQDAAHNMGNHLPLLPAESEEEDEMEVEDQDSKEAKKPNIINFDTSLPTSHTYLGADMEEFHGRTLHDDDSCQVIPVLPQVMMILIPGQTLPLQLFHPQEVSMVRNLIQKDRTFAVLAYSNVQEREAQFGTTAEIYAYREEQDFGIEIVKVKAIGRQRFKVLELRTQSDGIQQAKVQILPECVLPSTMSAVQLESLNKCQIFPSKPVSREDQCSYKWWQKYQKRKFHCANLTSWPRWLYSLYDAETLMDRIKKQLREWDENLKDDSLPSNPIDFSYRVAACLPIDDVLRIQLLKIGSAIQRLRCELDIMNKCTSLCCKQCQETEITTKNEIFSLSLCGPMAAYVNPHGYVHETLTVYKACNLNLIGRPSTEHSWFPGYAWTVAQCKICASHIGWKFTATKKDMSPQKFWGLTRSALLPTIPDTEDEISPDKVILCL
T1 sequence (Q16531 whole entry partner): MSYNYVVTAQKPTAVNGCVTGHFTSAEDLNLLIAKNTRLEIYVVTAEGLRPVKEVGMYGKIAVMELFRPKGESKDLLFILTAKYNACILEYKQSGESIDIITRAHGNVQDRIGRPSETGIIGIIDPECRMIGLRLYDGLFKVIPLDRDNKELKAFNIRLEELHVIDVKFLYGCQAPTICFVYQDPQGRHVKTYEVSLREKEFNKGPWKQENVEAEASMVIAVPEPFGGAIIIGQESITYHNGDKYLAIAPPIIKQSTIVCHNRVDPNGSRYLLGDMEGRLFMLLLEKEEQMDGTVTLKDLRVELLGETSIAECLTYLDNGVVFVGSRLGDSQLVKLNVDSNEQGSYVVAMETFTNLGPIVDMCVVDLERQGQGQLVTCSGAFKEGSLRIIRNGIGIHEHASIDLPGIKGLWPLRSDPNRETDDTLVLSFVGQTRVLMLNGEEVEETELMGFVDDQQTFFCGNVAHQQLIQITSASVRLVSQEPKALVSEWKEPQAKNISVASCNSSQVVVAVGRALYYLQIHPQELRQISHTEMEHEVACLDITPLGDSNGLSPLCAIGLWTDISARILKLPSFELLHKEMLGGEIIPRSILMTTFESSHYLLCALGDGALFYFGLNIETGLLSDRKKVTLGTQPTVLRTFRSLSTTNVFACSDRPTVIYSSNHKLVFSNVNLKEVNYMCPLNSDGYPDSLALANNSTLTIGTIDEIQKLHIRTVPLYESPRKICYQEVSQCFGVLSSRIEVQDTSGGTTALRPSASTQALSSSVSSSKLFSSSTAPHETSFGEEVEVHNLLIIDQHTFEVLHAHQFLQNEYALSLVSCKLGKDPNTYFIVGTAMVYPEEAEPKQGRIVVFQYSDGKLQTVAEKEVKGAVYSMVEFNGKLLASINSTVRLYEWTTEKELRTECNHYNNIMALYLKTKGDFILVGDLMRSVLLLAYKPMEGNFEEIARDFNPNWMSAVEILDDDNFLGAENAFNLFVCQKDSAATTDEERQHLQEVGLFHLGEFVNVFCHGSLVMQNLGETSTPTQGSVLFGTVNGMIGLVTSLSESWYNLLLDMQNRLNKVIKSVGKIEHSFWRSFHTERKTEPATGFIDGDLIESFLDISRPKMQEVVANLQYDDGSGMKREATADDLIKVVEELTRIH

As for `Cc1ccc(NC(=O)NCc2ccc3c(c2)C(=O)N(C2CCC(=O)NC2=O)C3)cc1Cl` (stereo not drawn) [Compound 8], the “cell death in cells for which cereblon was knocked out” value in experiment [1] (CRBN deficient HMEC induced for c-Myc) is “did not induce death”. Besides, the EC50 in experiment [1] (Homo sapiens, HMEC, absence of doxycycline-driven c-Myc expression, read-out: cell death, highest concentration tested) is more than 30 µM; in experiment [1] (Homo sapiens, HMEC, presence of high c-Myc expression (doxycycline), read-out: EC50 of induced cell death), 0.64 µM; in experiment [1] (after doxycycline was washed out to remove c-Myc expression, read-out: cell death, highest concentration tested) it was more than 30 µM. The “induction of death (viability normalized to DMSO)” value is “did induce death” in experiment [2] and “did not induce death” in experiment [3].

For `Cc1ccc(NC(=O)OCc2ccc3c(c2)C(=O)N(C2CCC(=O)NC2=O)C3)cc1Cl` (stereo not drawn) [Compound 210], the “relative levels of GSPT1 versus concentration” value at GSPT1 [4] is on record as “degrades GSPT1 in a concentration dependent manner”. For the same compound, the “extent of GSPT1 degradation” value on GSPT1 [4] (NCI-H1155 and ABC-1 cells) is “complete degradation of GSPT1”.

With `O=C1CCC(N2Cc3ccc(COC(=O)Nc4cc(OC(F)(F)F)ccc4F)cc3C2=O)C(=O)N1` (stereo not drawn) [Compound 345, (2-(2,6-dioxopiperidin-3-yl)-3-oxoisoindolin-5-yl)methyl(2-fluoro-5-(trifluoromethoxy)phenyl)carbamate], in the experiment with L-Myc, the “L-Myc level, timecourse” value is “downregulation of L-Myc”. In addition, the survival result in experiment [5] (biomarker negative patient-derived xenografts) is recorded as “but not in the biomarker negative patient-derived xenografts”; in experiment [5] (biomarker positive (high N-Myc or L-Myc mRNA expression) patient-derived xenografts), “significantly prolonged survival”. Moreover, at GSPT1 [6], the “GSPT1 level relative to vehicle-only control” value was “substantially reduced”.

The record behind these values is US20240261274A1, “TREATMENT OF MYC-DRIVEN CANCERS WITH GSPT1 DEGRADERS” (MONTE ROSA THERAPEUTICS, INC., priority 2021, published 2024).
